Assay results taken from the NIST ThermoML archive (doi:10.1021/je800101v).
Numbers after ± are expanded uncertainties.

Assay: xn = mol fraction of the nth substance listed
Settings: Ring tensiometer

CCCCCO [pentan-1-ol] + OCCO
surface tension liquid-gas [mN/m]
Settings	298.15 K	303.15 K	308.15 K	313.15 K	318.15 K
x1 = 0.0488	35.01 ± 0.52	34.4 ± 0.51	33.65 ± 0.5	33.18 ± 0.5	32.85 ± 0.49
x1 = 0.0931	32.1 ± 0.49	30.89 ± 0.47	30.71 ± 0.47	30.51 ± 0.47	30.37 ± 0.47
x1 = 0.1523	29.93 ± 0.46	29.14 ± 0.45	29.25 ± 0.45	29.05 ± 0.45	28.87 ± 0.45
x1 = 0.2043	29.26 ± 0.46	28.56 ± 0.45	28.41 ± 0.45	28.27 ± 0.44	28.09 ± 0.44
x1 = 0.2502	28.35 ± 0.45	27.94 ± 0.44	27.81 ± 0.44	27.67 ± 0.44	27.51 ± 0.44
x1 = 0.2912	28.04 ± 0.44	27.65 ± 0.44	27.51 ± 0.44	27.35 ± 0.43	27.17 ± 0.43
x1 = 0.3503	27.01 ± 0.43	27.05 ± 0.43	26.91 ± 0.43	26.8 ± 0.43	26.68 ± 0.43
x1 = 0.4094	27.39 ± 0.44	26.62 ± 0.43	26.48 ± 0.43	26.31 ± 0.42	26.18 ± 0.42
x1 = 0.4586	26.71 ± 0.43	26.19 ± 0.42	25.98 ± 0.42	25.82 ± 0.42	25.69 ± 0.42
x1 = 0.5003	26.75 ± 0.43	25.77 ± 0.42	25.61 ± 0.42	25.43 ± 0.41	25.27 ± 0.41
x1 = 0.552	26.53 ± 0.43	25.39 ± 0.42	25.21 ± 0.41	25.02 ± 0.41	24.91 ± 0.41
x1 = 0.5982	25.71 ± 0.42	25.15 ± 0.41	24.98 ± 0.41	24.81 ± 0.41	24.68 ± 0.41
x1 = 0.6425	26.32 ± 0.43	24.96 ± 0.41	24.79 ± 0.41	24.67 ± 0.41	24.53 ± 0.41
x1 = 0.6979	26.21 ± 0.43	24.75 ± 0.41	24.57 ± 0.41	24.41 ± 0.4	24.25 ± 0.4
x1 = 0.7197	26.12 ± 0.43	24.63 ± 0.41	24.51 ± 0.41	24.37 ± 0.4	24.19 ± 0.4
x1 = 0.7739	25.98 ± 0.42	24.35 ± 0.41	24.18 ± 0.4	23.98 ± 0.4	23.82 ± 0.4
x1 = 0.837	24.89 ± 0.41	24.23 ± 0.4	24.15 ± 0.4	23.92 ± 0.4	23.78 ± 0.4
x1 = 0.9113	25.45 ± 0.42	24.13 ± 0.4	24 ± 0.4	23.81 ± 0.4	23.65 ± 0.4
x1 = 0.9536	25.25 ± 0.42	24.02 ± 0.4	23.89 ± 0.4	23.75 ± 0.4	23.61 ± 0.4
